Experimental data: US20200163947A1 (Nortic Holdings Inc., priority 2018, published 2020)
Values after ≈ are worked out from the molar mass of the structure shown. Like-named read-outs stand apart in the source and are kept apart here.

Legend:
[1] = cited from earlier work
[2] = Single dose parallel plasma and CSF pharmacokinetics and relative bioavailability study in rats; assay type: in vivo; settings: both sexes, Wistar, rat, plasma
Description: The pharmacokinetics study was performed in 6 healthy rats (3 males and 3 females). […] Blood samples were collected at 15 minutes, 30 minutes, and at 1, 2, 4, 6, 8, 12 and 24 hours post-dose. CSF samples were collected at 1, 2, 4, and 24 hours post-dose. All samples were analyzed using a validated analytical LC-MS method.

[3] = 25° C.; cited from earlier work

COCCOC(=O)C1=C(C)NC(C)=C(C(=O)OC(C)C)C1c1cccc([N+](=O)[O-])c1 (stereo not drawn) [nimodipine, isopropyl 2-methoxyethyl 1,4-dihydro-2,6-dimethyl-4-(m-nitrophenyl)-3,5-pyridinedicarboxylate]
half-life equivalent to earlier elimination rates ([1]; man): 1 to 2 h | concentration in the cerebrospinal fluid ([1]; nimodipine-treated subarachnoid hemorrhage (SAH) patients): ≤ 12.5 ng/mL | Cmax in patients with hepatic cirrhosis versus normal ([1]; oral administration): approximately double | bioavailability ([2]; 0.73 mg, continuous intravenous infusion, read-out: absolute bioavailability): 100% | bioavailability ([2]; rats, 5.5 mg oral solution by oral gavage, Mean, read-out: Absolute Bioavailability (F %)): 22% | solubility in water [3]: 2.5 µg/mL (≈ 5.97 µM)
